Test results as given in patent US20060167037A1, “Combinational radiotherapy and chemotherapy compositions and methods” (priority 2003, published 2006).

Experiments:
Type in all cases: cell-based
[1] = tested on: cancer cell lines to human breast, prostate, ovarian, pancreatic and cervical cancers; assay: Radiosensitisation of cancer cell lines on culture plates (cell viability by CellTiter, apoptosis by Hoechst 33342 dye); settings: pre-treatment (1 day and 8 hour) and sequential/post-treatment (−30 min/+4 h) regimes, at 2 and 10 μM
Experimental: The effect of a selection of isoflavonoid compounds on various cancer cell lines subjected to radiotherapy was assessed on culture plates. Cell viability was determined using CellTiter®. Apoptosis was evaluated using Hoechst 33342 dye.
32 and 39 (at 2 and 10 μM).

cancer cells [2] = assay: Synergistic interaction with death receptor ligands and growth receptor inhibitors; settings: growth receptor inhibitors eg. of EGF, PDGF, FGF, TNF and IGF receptors
cancer cells [3] = assay: Synergy with the chemotherapeutics cisplatin and gemcitabine

With `COc1ccc(C2c3ccc(O)cc3OCC2c2ccc(O)cc2)cc1` (stereo not shown) [compound 32] the “radiosensitisation of cancer cell lines subjected to radiotherapy” value (“radiosensitisation” for short) [1] was “radiosensitised” and the “synergistic interaction with interferon-gamma, Fas ligand, TRAIL ligand, growth receptor inhibitors” value (cancer cells [2]) was “synergistic interaction”.
`COc1ccc(C2c3ccc(O)c(C)c3OCC2c2ccc(O)cc2)cc1` (stereo not shown) [compound 39] was tested, and the “radiosensitisation” value [1] was “radiosensitised” and the “synergistic interaction with interferon-gamma, Fas ligand, TRAIL ligand, growth receptor inhibitors” value (cancer cells [2]) was “synergistic interaction”.
For `Oc1ccc(C2=Cc3ccc(O)cc3OC2)cc1` [Cpd. 12, dehydroequol], the “radiosensitisation” value [1] was “radiosensitised”, the “synergy with the effect of chemotherapeutics such as cisplatin and gemcitabine” value (cancer cells [3]) was “synergise” and the “synergistic interaction with interferon-gamma, Fas ligand, TRAIL ligand, growth receptor inhibitors” value (cancer cells [2]) was “synergistic interaction”.
